Data on 14 compounds can be found in patent US10689367B2, “Triazole pyridyl compounds as agonists of the APJ receptor” (AMGEN INC., priority 2016, dated 2020).

human APJ receptor, sequence (P35414 whole entry): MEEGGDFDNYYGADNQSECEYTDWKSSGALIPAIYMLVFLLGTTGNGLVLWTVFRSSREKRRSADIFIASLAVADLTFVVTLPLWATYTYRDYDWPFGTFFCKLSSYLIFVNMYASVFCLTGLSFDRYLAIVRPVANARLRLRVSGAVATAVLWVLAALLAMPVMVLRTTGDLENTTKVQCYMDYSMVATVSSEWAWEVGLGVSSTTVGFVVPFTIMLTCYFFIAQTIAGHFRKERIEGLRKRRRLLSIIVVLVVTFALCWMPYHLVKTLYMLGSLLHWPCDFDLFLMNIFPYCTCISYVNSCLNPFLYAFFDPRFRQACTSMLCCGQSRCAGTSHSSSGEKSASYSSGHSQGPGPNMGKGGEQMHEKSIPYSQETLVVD

The target in this assay is human APJ receptor (Homo sapiens (Human), UniProt P35414). Briefly: [35S]GTPγS binding assay on membranes from CHO cells stably expressing human APJ receptor. It counts as biochemical. To be noted: membranes of CHO cells stably expressing human APJ receptor, read-out: Activity hAPJ SPA EC50 IP. The method in brief:
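Agonist EC50 values come from non-linear regression of mean data from several independent runs. Membranes of CHO cells stably expressing human APJ were incubated 90 min at room temperature with [35S]GTPγS in buffer with optimized GDP, MgCl2 and NaCl, then read on a microplate imager.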
In the case of `COc1cccc(-c2nnc(NS(=O)(=O)[C@@H](C)[C@@H](OC(C)C)c3ncc(C)cn3)n2[C@@H](C)c2ncc(C)o2)n1` (single isomer, unassigned) [Example 242.0, (1S,2S)-N-(5-(6-methoxy-2-pyridinyl)-4-((1S)-1-(5-methyl-1,3-oxazol-2-yl)ethyl)-4H-1,2,4-triazol-3-yl)-1-(5-methyl-2-pyrimidinyl)-1-(2-propanyloxy)-2-propanesulfonamide or (1S,2S)-N-(5-(6-methoxy-2-pyridinyl)-4-((1S)-1-(5-methyl-1,3-oxazol-2-yl)ethyl)-4H-1,2,4-triazol-3-yl)-1-(5-methyl-2-pyrimidinyl)-1-(2-propanyloxy)-2-propanesulfonamide], the EC50 came out at 13 nM.

Take `COc1cccc(-c2nnc(NS(=O)(=O)[C@@H](C)[C@H](OC)c3ncc(Cl)cn3)n2[C@@H](C)c2noc(C)n2)n1` (single isomer, unassigned) [Example 243.0, (1R,2S)-1-(5-chloro-2-pyrimidinyl)-1-methoxy-N-(5-(6-methoxy-2-pyridinyl)-4-((1S)-1-(5-methyl-1,2,4-oxadiazol-3-yl)ethyl)-4H-1,2,4-triazol-3-yl)-2-propanesulfonamide or (1R,2S)-1-(5-chloro-2-pyrimidinyl)-1-methoxy-N-(5-(6-methoxy-2-pyridinyl)-4-((1R)-1-(5-methyl-1,2,4-oxadiazol-3-yl)ethyl)-4H-1,2,4-triazol-3-yl)-2-propanesulfonamide]: the EC50 was found to be 3.7 nM.

On to `COc1cccc(-c2nnc(NS(=O)(=O)[C@@H](C)[C@H](OC)c3ncc(Cl)cn3)n2[C@@H](C)c2noc(C)n2)n1` (single isomer, unassigned) [Example 244.0, (1R,2S)-1-(5-chloro-2-pyrimidinyl)-1-methoxy-N-(5-(6-methoxy-2-pyridinyl)-4-((1R)-1-(5-methyl-1,2,4-oxadiazol-3-yl)ethyl)-4H-1,2,4-triazol-3-yl)-2-propanesulfonamide or (1R,2S)-1-(5-chloro-2-pyrimidinyl)-1-methoxy-N-(5-(6-methoxy-2-pyridinyl)-4-((1S)-1-(5-methyl-1,2,4-oxadiazol-3-yl)ethyl)-4H-1,2,4-triazol-3-yl)-2-propanesulfonamide], for which the EC50 stood at 8.2 nM.

For `COc1cccc(-c2nnc(NS(=O)(=O)[C@@H](C)[C@H](C)c3ncc(Cl)cn3)n2[C@@H](C)c2noc(C)n2)n1` (single isomer, unassigned) [Example 245.0, (2S,3R)-3-(5-chloro-2-pyrimidinyl)-N-(5-(6-methoxy-2-pyridinyl)-4-((1R)-1-(5-methyl-1,2,4-oxadiazol-3-yl)ethyl)-4H-1,2,4-triazol-3-yl)-2-butanesulfonamide or (2S,3R)-3-(5-chloro-2-pyrimidinyl)-N-(5-(6-methoxy-2-pyridinyl)-4-((1S)-1-(5-methyl-1,2,4-oxadiazol-3-yl)ethyl)-4H-1,2,4-triazol-3-yl)-2-butanesulfonamide], the EC50 turned out to be 7 nM.

In the case of `COc1cccc(-c2nnc(NS(=O)(=O)[C@@H](C)[C@H](C)c3ncc(Cl)cn3)n2[C@@H](C)c2nc(C)no2)n1` (single isomer, unassigned) [Example 246.0, (2S,3R)-3-(5-chloro-2-pyrimidinyl)-N-(5-(6-methoxy-2-pyridinyl)-4-((1R)-1-(5-methyl-1,2,4-oxadiazol-3-yl)ethyl)-4H-1,2,4-triazol-3-yl)-2-butanesulfonamide or (2S,3R)-3-(5-chloro-2-pyrimidinyl)-N-(5-(6-methoxy-2-pyridinyl)-4-((1S)-1-(5-methyl-1,2,4-oxadiazol-3-yl)ethyl)-4H-1,2,4-triazol-3-yl)-2-butanesulfonamide], the EC50 came out at 3.4 nM.

As to `COc1cccc(-c2nnc(NS(=O)(=O)[C@@H](C)[C@H](C)c3ncc(Cl)cn3)n2[C@@H](C)c2nc(C)no2)n1` (single isomer, unassigned) [Example 247.0, (2S,3R)-3-(5-chloro-2-pyrimidinyl)-N-(5-(6-methoxy-2-pyridinyl)-4-((1R)-1-(3-methyl-1,2,4-oxadiazol-5-yl)ethyl)-4H-1,2,4-triazol-3-yl)-2-butanesulfonamide or (2S,3R)-3-(5-chloro-2-pyrimidinyl)-N-(5-(6-methoxy-2-pyridinyl)-4-((1S)-1-(3-methyl-1,2,4-oxadiazol-5-yl)ethyl)-4H-1,2,4-triazol-3-yl)-2-butanesulfonamide], the EC50 turned out to be 5.3 nM.

On to `COc1cccc(-c2nnc(NS(=O)(=O)[C@@H](C)[C@H](OC)c3ncc(Cl)cn3)n2[C@@H](C)c2ncnn2C)n1` (single isomer, unassigned) [Example 248.0, (1R,2S)-1-(5-chloro-2-pyrimidinyl)-1-methoxy-N-(5-(6-methoxy-2-pyridinyl)-4-((1S)-1-(1-methyl-1H-1,2,4-triazol-5-yl)ethyl)-4H-1,2,4-triazol-3-yl)-2-propanesulfonamide or (1R,2S)-1-(5-chloro-2-pyrimidinyl)-1-methoxy-N-(5-(6-methoxy-2-pyridinyl)-4-((1R)-1-(1-methyl-1H-1,2,4-triazol-5-yl)ethyl)-4H-1,2,4-triazol-3-yl)-2-propanesulfonamide], for which the EC50 was 270 nM.

For the compound `COc1cccc(-c2nnc(NS(=O)(=O)[C@@H](C)[C@H](OC)c3ncc(Cl)cn3)n2[C@@H](C)c2ncnn2C)n1` (single isomer, unassigned) [Example 249.0, (1R,2S)-1-(5-chloro-2-pyrimidinyl)-1-methoxy-N-(5-(6-methoxy-2-pyridinyl)-4-((1R)-1-(1-methyl-1H-1,2,4-triazol-5-yl)ethyl)-4H-1,2,4-triazol-3-yl)-2-propanesulfonamide or (1R,2S)-1-(5-chloro-2-pyrimidinyl)-1-methoxy-N-(5-(6-methoxy-2-pyridinyl)-4-((1S)-1-(1-methyl-1H-1,2,4-triazol-5-yl)ethyl)-4H-1,2,4-triazol-3-yl)-2-propanesulfonamide], the EC50 is 3 nM.

As for `COc1cccc(-c2nnc(NS(=O)(=O)[C@@H](C)[C@H](C)c3ncc(Cl)cn3)n2[C@@H](C)c2ncnn2C)n1` (single isomer, unassigned) [Example 250.0], the EC50 came out at 370 nM.

For `COc1cccc(-c2nnc(NS(=O)(=O)[C@@H](C)[C@H](C)c3ncc(Cl)cn3)n2[C@@H](C)c2ncnn2C)n1` (single isomer, unassigned) [Example 251.0, (2S,3R)-3-(5-chloro-2-pyrimidinyl)-N-(5-(6-methoxy-2-pyridinyl)-4-((1R)-1-(1-methyl-1H-1,2,4-triazol-5-yl)ethyl)-4H-1,2,4-triazol-3-yl)-2-butanesulfonamide or (2S,3R)-3-(5-chloro-2-pyrimidinyl)-N-(5-(6-methoxy-2-pyridinyl)-4-((1S)-1-(1-methyl-1H-1,2,4-triazol-5-yl)ethyl)-4H-1,2,4-triazol-3-yl)-2-butanesulfonamide], the 50% effective concentration (EC50) worked out at 1.7 nM.

As for `COc1cccc(-c2nnc(NS(=O)(=O)[C@@H](C)[C@@H](OC(C)C)c3ncc(C)cn3)n2[C@@H](C)c2ncnn2C)n1` (single isomer, unassigned) [Example 253.0, (1S,2S)-N-(5-(6-methoxy-2-pyridinyl)-4-((1R)-1-(1-methyl-1H-1,2,4-triazol-5-yl)ethyl)-4H-1,2,4-triazol-3-yl)-1-(5-methyl-2-pyrimidinyl)-1-(2-propanyloxy)-2-propanesulfonamide or (1S,2S)-N-(5-(6-methoxy-2-pyridinyl)-4-((1S)-1-(1-methyl-1H-1,2,4-triazol-5-yl)ethyl)-4H-1,2,4-triazol-3-yl)-1-(5-methyl-2-pyrimidinyl)-1-(2-propanyloxy)-2-propanesulfonamide], the EC50 came to 32 nM.

For `COc1cccc(-c2nnc(NS(=O)(=O)[C@@H](C)[C@H](OC)c3ncc(Cl)cn3)n2[C@@H](C)c2ncc(C)o2)n1` (single isomer, unassigned) [Example 255.0, (1R,2S)-1-(5-chloro-2-pyrimidinyl)-1-methoxy-N-(5-(6-methoxy-2-pyridinyl)-4-((1S)-1-(5-methyl-1,3-oxazol-2-yl)ethyl)-4H-1,2,4-triazol-3-yl)-2-propanesulfonamide or (1R,2S)-1-(5-chloro-2-pyrimidinyl)-1-methoxy-N-(5-(6-methoxy-2-pyridinyl)-4-((1R)-1-(5-methyl-1,3-oxazol-2-yl)ethyl)-4H-1,2,4-triazol-3-yl)-2-propanesulfonamide], the concentration giving a half-maximal response (EC50) amounted to 7.5 nM.

Regarding `COc1cccc(-c2nnc(NS(=O)(=O)[C@@H](C)[C@H](OC)c3ncc(Cl)cn3)n2[C@@H](C)c2ncc(C)o2)n1` (single isomer, unassigned) [Example 256.0, (1R,2S)-1-(5-chloro-2-pyrimidinyl)-1-methoxy-N-(5-(6-methoxy-2-pyridinyl)-4-((1S)-1-(5-methyl-1,3-oxazol-2-yl)ethyl)-4H-1,2,4-triazol-3-yl)-2-propanesulfonamide or (1R,2S)-1-(5-chloro-2-pyrimidinyl)-1-methoxy-N-(5-(6-methoxy-2-pyridinyl)-4-((1R)-1-(5-methyl-1,3-oxazol-2-yl)ethyl)-4H-1,2,4-triazol-3-yl)-2-propanesulfonamide], the EC50 worked out at 0.48 nM.

For `COc1cccc(-c2nnc(NS(=O)(=O)[C@@H](C)[C@H](C)c3ncc(Cl)cn3)n2[C@@H](C)c2ncc(C)o2)n1` (single isomer, unassigned) [Example 257.0, (2S,3R)-3-(5-chloro-2-pyrimidinyl)-N-(5-(6-methoxy-2-pyridinyl)-4-((1S)-1-(5-methyl-1,3-oxazol-2-yl)ethyl)-4H-1,2,4-triazol-3-yl)-2-butanesulfonamide or (2S,3R)-3-(5-chloro-2-pyrimidinyl)-N-(5-(6-methoxy-2-pyridinyl)-4-((1R)-1-(5-methyl-1,3-oxazol-2-yl)ethyl)-4H-1,2,4-triazol-3-yl)-2-butanesulfonamide], the EC50 turned out to be 16 nM.
